# Laboratory results: patent publication EP1388586A2, “Identification of broadly reactive DR restricted epitopes” (priority 1998, dated 1999)
# Where two headings read alike, the source gives them in different places. Square brackets hold non-standard residues; d marks the D form. Ends that are not written are not given here. Peptide text beside a SMILES is read from it.
# Tests used:
# [1] = target: T1, DRB1*1101 (DR5w11) (Homo sapiens, UniProt P01903+P01911, A100R/A169T/A87E/I96F/K41T/L162R/M171V/P40S/Q125H/Q178H/Q39Y/Q99D/R42S/S66Y/T262R/V115G/W38E); assay: Class II peptide-binding assay, DR5w11;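 note: competition by unlabeled test peptide against iodinated probe peptide binding to affinity-purified HLA-DR, class II amount titrated beforehand, half-maximal inhibitory concentration read as approximate Kd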
# T1 construct: used as sources of human HLA class II molecules; endogenous in cells; host or cells: SWEIG (EBV-transformed homozygous B cell line)
# [2] = target: T2, DRB5*0101 (DR2w2a) (Homo sapiens, UniProt P01903+Q30154); assay: Class II peptide-binding assay, DR2w2a (DR2w2B2);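 note: competitive binding assay: unlabeled peptide inhibiting binding of a radiolabeled probe peptide to purified DR molecules at pH 7.0, IC50 approximating Kd, lower means stronger binding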
# T2 construct: used as sources of human HLA class II molecules; endogenous in cells; host or cells: GM3107 (EBV-transformed homozygous B cell line)
# [3] = target: T3, DRB1*0101 (DR1) (Homo sapiens, UniProt P01903+P01911, A100R/D57E/F55L/F60I/F76Y/I96L/L162R/M171V/P40L/Q125E/R42F/V115G/Y59C); assay: Class II peptide-binding assay, DR1;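 note: competition assay: unlabeled test peptides inhibit binding of a radiolabeled probe peptide to purified DR, with half-maximal inhibition taken as an approximate dissociation constant Kd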
# T3 construct: used as sources of human HLA class II molecules; endogenous in cells; host or cells: LG2 (EBV-transformed homozygous B cell line)
# [4] = target: T4, DRB1*0401 (DR4w4) (Homo sapiens, UniProt P01903+P01911, A100K/A169T/F76Y/I96L/K127E/L162R/M171V/N62H/P40V/Q125Y/R42H/S133A/S149N/S66Y/V115G/V209L/W38E); assay: Class II peptide-binding assay, DR4w4;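 note: unlabeled test peptides compete with a radiolabeled probe peptide for binding to affinity-purified HLA-DR, with DR amount titrated to capture a small fraction of label, IC50 approximating Kd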
# T4 construct: used as sources of human HLA class II molecules; endogenous in cells; host or cells: PREISS (EBV-transformed homozygous B cell line)
# [5] = target: T5, DRB10404 (DR4w14) (Homo sapiens, UniProt P01903+P01911, A100R/A169T/F76Y/I96L/K127E/L162R/M171V/N62H/P40V/Q125Y/R42H/S133A/S149N/S66Y/V209L/W38E); assay: Class II peptide-binding assay, DR4w14;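 note: unlabeled peptides compete with a radiolabeled probe for binding to affinity-purified HLA-DR, neutral pH, class II amount titrated to bind a small fraction of label, IC50 approximates Kd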
# T5 construct: used as sources of human HLA class II molecules; endogenous in cells; host or cells: BIN40 (EBV-transformed homozygous B cell line)
# Description: Class II peptide-binding assays. […] These assays were chosen as to be representative of the most common DR alleles.
# In appropriate stoichiometric conditions, the IC50 of an unlabeled test peptide to the purified DR is a reasonable approximation of the affinity of interaction (Kd). Peptides were tested in two to four completely independent experiments. […] Final detergent concentration in the incubation mixture was 0.05% Nonidet P-40. Assays were performed at pH 7.0 with the exception of DR3, which was performed at pH 4.5, and DRw53, which was performed at pH 5.0.
# All subsequent inhibition and direct binding assays were the performed using these class II concentrations.
# [6] = target: DRB1*0701 (DR7) (Homo sapiens, UniProt P01903+P01911, A100R/A102G/A103Q/D57E/D86V/E43K/F76Y/K127E/L162R/M171V/P40G/Q125H/Q99D/R33Q/R42Y/R54Q/S133A/S66F/T210M/V115G/Y107V/Y59L/Y89S); assay: Class II peptide-binding assay, DR7;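 note: unlabeled peptides compete with an iodinated probe peptide for binding to affinity-purified HLA-DR at neutral pH, DR amount titered to bind a small tracer fraction, IC50 approximating Kd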
# [7] = read-out: DR5w11 nM (In IC50 Format), purified HLA DR5w11
# [8] = read-out: DR2w2B2 nM (In IC50 Format), purified HLA DR2w2β2
# [9] = read-out: DR1 nM (In IC50 Format), purified HLA DR1
# [10] = read-out: DR4w4 nM (In IC50 Format), purified HLA DR4w4
# [11] = read-out: DR4w14 nM (In IC50 Format), purified HLA DR4w14
# [12] = read-out: DR7 nM (In IC50 Format), purified HLA DR7
# [13] = purified HLA DR5w11, read-out: DR5w11 nM (In IC50 Format)
# [14] = purified HLA DR2w2β2, read-out: DR2w2B2 nM (In IC50 Format)
# [15] = purified HLA DR1, read-out: DR1 nM (In IC50 Format)
# [16] = purified HLA DR4w4, read-out: DR4w4 nM (In IC50 Format)
# [17] = purified HLA DR4w14, read-out: DR4w14 nM (In IC50 Format)
# [18] = purified HLA DR7, read-out: DR7 nM (In IC50 Format)
# [19] = read-out: DR5w11 nM, Table VIII, In IC50 Format
# [20] = read-out: DR2w2B2 nM, Table VIII, In IC50 Format
# [21] = read-out: DR4w4 nM, Table VIII, In IC50 Format
# [22] = read-out: DR4w14 nM, Table VIII, In IC50 Format
# [23] = read-out: DR7 nM, Table VIII, In IC50 Format
# T1 sequence (P01903 26-254, other chains not shown): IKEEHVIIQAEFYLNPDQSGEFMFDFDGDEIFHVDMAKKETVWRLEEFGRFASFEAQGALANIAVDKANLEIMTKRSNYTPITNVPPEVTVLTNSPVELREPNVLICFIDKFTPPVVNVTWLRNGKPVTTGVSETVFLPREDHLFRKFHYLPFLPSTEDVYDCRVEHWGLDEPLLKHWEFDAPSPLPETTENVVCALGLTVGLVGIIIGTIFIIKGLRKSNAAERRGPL
Compound,"IC50 [1, 7] [nM]","IC50 [2, 8] [nM]","IC50 [3, 9] [nM]","IC50 [4, 10] [nM]","IC50 [5, 11] [nM]","IC50 [6, 12] [nM]",also measured
YARFQSQTTLKAAT-NH2 [Peptide 717.49],6.3,118,2.1,6.6,7.1,4170,–
KMYFNLINTKCYKLEH [Peptide 541.14],–,–,–,–,–,–,"IC50 ([1]; Table VIII, read-out: In IC50 Format DR5w11): 250 nM; IC50 ([2]; Table VIII, read-out: In IC50 Format DR2w2β2): 103 nM; IC50 ([3]; Table VIII, read-out: In IC50 Format DR1): 714 nM; IC50 ([4]; Table VIII, read-out: In IC50 Format DR4w4): 2140 nM; IC50 ([5]; Table VIII, read-out: In IC50 Format DR4w14): 3570 nM; IC50 ([6]; Table VIII, read-out: In IC50 Format DR7): 269 nM"
YARFQSQTTLKAKT-NH2 [Peptide 717.02],18.9,125,2.9,3.7,18.5,2780,–
YIAFLKQATAKLAT [Peptide 723.01],30.5,69,4.9,16.7,746,15.6,–
CC(C)C[C@H](NC(=O)[C@@H](NC(=O)[C@@H](NC(=O)[C@H](CCC(N)=O)NC(=O)[C@H](CCCNC(=N)N)NC(=O)[C@H](CCC(N)=O)NC(=O)[C@H](Cc1ccccc1)NC(=O)[C@H](C)NC(=O)[C@H](C)NC(=O)[C@H](N)Cc1ccc(O)cc1)[C@@H](C)O)[C@@H](C)O)C(=O)N[C@@H](CCCCN)C(=O)N[C@@H](C)C(=O)N[C@@H](C)C(=O)N[C@H](C)C(N)=O [Peptide 781.16] (H-[dY]AAFQRQTTLKAA[dA]-NH2),10,155,3,3.8,7,2780,–
AAFAAAAAQRLFA-NH2 [Peptide 761.01],556,1.2,2.3,30,3330,7.6,–
YSRFQSQTTLKAKT-NH2 [Peptide 717.38],16.7,274,6.1,10,15.2,6250,–
LMQYIKANSKFIGITE [Peptide 812.03],–,–,–,–,–,–,"IC50 [1, 13]: 13.9 nM; IC50 [2, 14]: 4.9 nM; IC50 [3, 15]: 13.2 nM; IC50 [4, 16]: 150 nM; IC50 [5, 17]: 65.8 nM; IC50 [6, 18]: 11.9 nM"
YAAFQSQTTLKAKT-NH2 [Peptide 717.30],22.2,105,8.7,7.6,7.5,4170,–
KYLATASTMDHARHGFLP [Peptide 765.02],5000,10000,50000,100,86.5,157,–
C[C@H](NC(=O)[C@H](C)NC(=O)[C@H](Cc1ccccc1)NC(=O)[C@H](C)NC(=O)[C@@H](C)N)C(=O)N[C@@H](C)C(=O)N[C@@H](C)C(=O)N1CCC[C@H]1C(=O)N[C@@H](CCCCN)C(=O)N[C@@H](C)C(=O)N[C@@H](C)C(=O)N[C@@H](C)C(=O)N[C@H](C)C(N)=O [Peptide 828.05] (H-[dA]AFAAAAPKAAA[dA]-NH2),–,–,–,–,–,–,"IC50 [1, 19]: 105 nM; IC50 [2, 20]: 15.6 nM; IC50 ([3]; read-out: DR1 nM, Table VIII, In IC50 Format): 1.9 nM; IC50 [4, 21]: 155 nM; IC50 [5, 22]: 6250 nM; IC50 [6, 23]: 1320 nM"
YARFQSLTTLKAKT-NH2 [Peptide 717.15],5.3,23.8,1.2,2,9.4,961,–
YAKFQSQTTLKAKT-NH2 [Peptide 717.40],8.7,167,8.8,4.9,14.3,3570,–
CC[C@H](C)[C@H](NC(=O)CNC(=O)[C@@H](NC(=O)[C@H](Cc1ccccc1)NC(=O)[C@H](CCCCN)NC(=O)[C@H](CO)NC(=O)[C@H](CC(N)=O)NC(=O)[C@H](C)NC(=O)[C@H](CCCCN)NC(=O)[C@@H](NC(=O)[C@H](Cc1ccc(O)cc1)NC(=O)[C@@H](N)CCC(N)=O)[C@@H](C)CC)[C@@H](C)CC)C(=O)N[C@H](C(=O)N[C@@H](CCC(=O)O)C(=O)N[C@@H](CC(C)C)C(=O)N[C@@H](CCCCN)C(=O)N[C@@H](CCCCN)C(N)=O)[C@@H](C)O [Peptide 812.01],–,–,–,–,–,–,"IC50 [1, 13]: 28.6 nM; IC50 [2, 14]: 16 nM; IC50 [3, 15]: 80.6 nM; IC50 [4, 16]: 409 nM; IC50 [5, 17]: 16700 nM; IC50 [6, 18]: 357 nM"
YARFQSQTTLKSKT-NH2 [Peptide 717.23],25.3,215,294,2.8,21.7,8330,–
YARFQSQTTLKAKA-NH2 [Peptide 717.48],5.9,40.8,1.8,2.6,5.3,6250,–
YARFQSQTTLKART-NH2 [Peptide 717.25],13.3,64.5,4.5,1.2,10.6,4170,–
YARFQSQTVLKAKT-NH2 [Peptide 717.32],14.3,400,7.6,5.7,10.4,151,–
CC(C)C[C@H](NC(=O)[C@@H](NC(=O)[C@@H](NC(=O)[C@H](CCC(N)=O)NC(=O)[C@H](CO)NC(=O)[C@H](CCC(N)=O)NC(=O)[C@H](Cc1ccccc1)NC(=O)[C@H](C)NC(=O)[C@H](C)NC(=O)[C@H](N)Cc1ccc(O)cc1)[C@@H](C)O)[C@@H](C)O)C(=O)N[C@@H](CCCCN)C(=O)N[C@@H](C)C(=O)N[C@@H](CCCCN)C(=O)N[C@@H](C(N)=O)[C@H](C)O [Peptide 858.04] (H-[dY]AAFQSQTTLKAK[dT]-NH2),–,–,–,–,–,–,"IC50 [1, 19]: 19.6 nM; IC50 [2, 20]: 141 nM; IC50 [4, 21]: 4.5 nM; IC50 [5, 22]: 15.6 nM; IC50 [6, 23]: 25000 nM"
